Reference: article PMC13083723 (Patterns, 2026)
pEC50: −log10 of the molar value. Counter-ions that a name gives are not always drawn. Like-named read-outs stand apart in the source and are kept apart here.

Tests used:
Vero-E6 cells = assay: cells; type: cell-based; conditions: for pEC50: read-out: PLD EC50; for activation at 10 µM / activation at 5 µM / activation at 20 µM: Vero C1008, 24 h; for activation at 5 µM: read-out: PLD Effect in % 5 µM; for activation at 20 µM: read-out: PLD Effect in % 20 µM; for EC50: Vero C1008, read-out: PLD EC50 µM
SARS-CoV-2 [1] = conditions: cited from earlier work; for Vero-E6 CPE inhibition %: 10 µM
SARS-CoV-2 [2] = conditions: cited from earlier work; for CaCo2 CPE inhibition %: Caco-2, 20 µM
A549 cells = assay: PLD assay of predicted ENZO library compounds in A549 cells; conditions: Homo sapiens, A549, read-out: PLD effect % in A549
CaCo2 cells = conditions: 10 μM in-assay concentration; ENZO library; amiodarone as positive control
A549-ACE2 cells = assay: cells; type: cell-based; conditions: A549-ACE2, 24 h, read-out: PLD_Effect(%) A549-ACE2
[3] = Chlorocebus sabaeus, read-out: PLD effect % in Vero-E6
[4] = Chlorocebus sabaeus, read-out: PLD Effect in % 10 µM

SMILES | PLD Effect in % 5 µM (Vero-E6 cells) | PLD Effect in % 10 µM (Vero-E6 cells) | PLD Effect in % 20 µM (Vero-E6 cells) | Vero-E6 CPE inhibition % (SARS-CoV-2 [1]) | CaCo2 CPE inhibition % (SARS-CoV-2 [2]) | activation at 5 µM (Vero-E6 cells; Chlorocebus sabaeus) [%] | activation at 10 µM (Vero-E6 cells; [4]) [%] | activation at 20 µM (Vero-E6 cells; Chlorocebus sabaeus) [%] | other results
CN(C)CCNc1nc2cc(O)ccc2c2c1C(=O)c1ccccc1-2 [TAS-103, reference compound] | 135.39% | 172.31% | 121.21% | -0.08% | 92.56% |  |  |  | pEC50 (Vero-E6 cells): 5.64
CNCCC(Oc1ccc(C(F)(F)F)cc1)c1ccccc1 (stereo not shown) [Fluoxetine, reference compound] |  |  |  |  |  |  |  |  | activation at 10 µM (Vero-E6 cells; [3]): 111%; activation at 10 µM (A549 cells): 108%
COc1ccc(NC(=O)c2ccc(-c3ccc(-c4noc(C)n4)cc3C)cc2)cc1N1CCN(C)CC1 [GR-127935, reference compound] |  |  |  | -0.76% | 53.73% | 136 | 162 | -40.2 | EC50 (Vero-E6 cells; Chlorocebus sabaeus): 1.12 µM
COc1cc(C)c2c(Oc3cccc(C(F)(F)F)c3)c(OC)cc(NC(C)CCCN)c2n1 (stereo not shown) [tafenoquine, reference compound] | toxic | toxic | toxic | toxic | toxic |  |  |  | PLD EC50 µM (Vero-E6 cells): toxic; Vero-E6 EC50 µM (SARS-CoV-2 [1]): toxic; CaCo2 EC50 µM (SARS-CoV-2 [2]): toxic
C[C@@H](NCCCc1cccc(C(F)(F)F)c1)c1cccc2ccccc12 [Cinacalcet] |  |  |  |  |  |  |  |  | activation at 10 µM (Vero-E6 cells; [3]): 43%; PLD effect % in CaCo2 (CaCo2 cells): 20.9%; activation at 10 µM (A549 cells): 105%
COc1ccc(CCN(C)CCCOc2ccc(S(=O)(=O)c3c(C(C)C)c4ccccc4n3C)cc2)cc1OC [SR-33805 oxalate, reference compound] | 54.44% | 86.07% | 137.08% | 0.02 | 67.72% |  |  |  | pEC50 (Vero-E6 cells): 5.03
CN(C)C(=O)C(CCN1CCC(O)(c2ccc(Cl)cc2)CC1)(c1ccccc1)c1ccccc1 [loperamide hydrochloride, reference compound] |  |  |  | 5.03% | 58.93% | 55 | 75.4 | 86.1 | 
CNCC[C@H](Oc1cccc2ccccc12)c1cccs1 [Duloxetine] |  |  |  |  |  |  |  |  | activation at 10 µM (Vero-E6 cells; [3]): 95.9%; PLD effect % in CaCo2 (CaCo2 cells): 84.9%; activation at 10 µM (A549 cells): 108%
CNCc1ccc(C)c(NC(=O)c2ccc(Nc3nc(-c4ccccc4)c4ccccc4n3)cc2)c1 [BMS-833923 (XL139), reference compound] |  |  |  | -0.37 | 68.77% | 72.2 | 59.1 | -39.6 | pEC50 (Vero-E6 cells; Chlorocebus sabaeus, Vero C1008): 5.95
c1cc2c(cc1C1CCCCC1)c1c3n2CCNC3CCC1 (stereo not shown) [tetrindole, reference compound] | 133.51% | 133.70% | -33.00% | -0.34% | 75.19% |  |  |  | pEC50 (Vero-E6 cells): 5.02
CCN(CC)CCCCNc1ncc2cc(-c3c(Cl)cccc3Cl)c(NC(=O)NC(C)(C)C)nc2n1 [PD-161570, reference compound] | 163.59% | 118.17% | 36.18% | 12.35% | 108.10% |  |  |  | pEC50 (Vero-E6 cells): 6.20; pEC50 (SARS-CoV-2 [1]; read-out: Vero-E6 EC50): 3.84
CC(C)c1ccc2c(c1)CC[C@H]1[C@](C)(CN)CCC[C@]21C [Lylamine, reference compound] | 104.48% | 133.55% | -41.01% | -0.36% | 76.43% |  |  |  | 
CN1CCN(c2ccc(C(=O)Nc3n[nH]c4ccc(Cc5cc(F)cc(F)c5)cc34)c(NC3CCOCC3)c2)CC1 [entrectinib (RXDX-101), entrectinib, reference compound] | toxic | toxic | toxic | toxic | toxic |  |  |  | PLD EC50 µM (Vero-E6 cells): toxic; Vero-E6 EC50 µM (SARS-CoV-2 [1]): toxic; CaCo2 EC50 µM (SARS-CoV-2 [2]): toxic
COc1cccc([C@@H](C)NCCCc2ccccc2Cl)c1 [tecalcet, reference compound] |  |  |  | -0.13% | 78.10% | 59.6 | 74.3 | 102 | activation at 10 µM (Vero-E6 cells; Chlorocebus sabaeus, read-out: PLD_Effect(%) VERO-E6): 70.1%; EC50 (Vero-E6 cells; Chlorocebus sabaeus): 2.6 µM; activation at 10 µM (A549-ACE2 cells): 93%
Cc1cc(Nc2ncc(Cl)c(Nc3ccccc3S(=O)(=O)C(C)C)n2)c(OC(C)C)cc1C1CCNCC1 [Ceritinib, reference compound] |  |  |  | -0.35% | 59.98% | 91.9 | 116 | 137 | EC50 (Vero-E6 cells; Chlorocebus sabaeus): 2.18 µM
